Experimental findings from article PMC10001106, “A New Bloody Pulp Selection of Myrobalan (Prunus cerasifera L.): Pomological Traits, Chemical Composition, and Nutraceutical Properties” (Foods, 2023) are described below.

What all share (conditions): mean ± SD, n = 3
A short description of experiment [1]: β-carotene bleaching test. How it is done: (§1) All the procedures were previously detailed. The Relative Antioxidant Capacity Index (RACI) was applied to evaluate the sample characterized by the highest activity. Linear regression, assessment of repeatability, calculation of average, relative standard deviation (SD), and Pearson’s correlation coefficient (r) were calculated by using Microsoft Excel 2010 software (Redmond, WA, USA). The results were expressed as the means of three different experiments ± SD.

A short description of experiment [2]: DPPH radical scavenging test. On the procedure: as §1
(In general: The DPPH test is a chemical assay of radical scavenging.)

The nature of experiment [3]: ABTS radical scavenging test. How it is done: as §1

Turning to `CCCOC(=O)c1cc(O)c(O)c(O)c1` [Propyl gallate], the “β-Carotene Bleaching Test (IC50)” value in experiment [1] was determined as 0.09 ± 0.04 µg/mL. Take `O=C1O[C@H]([C@@H](O)CO)C(O)=C1O` [Ascorbic acid]: in experiment [2], the “DPPH Test (IC50)” value was found to be 5.04 ± 0.81 µg/mL. The “ABTS Test (IC50)” value in experiment [3] turned out to be 1.72 ± 0.14 µg/mL.
